Results: patent US5614533A, “Substituted pipecolinic acid derivatives as HIV protease inhibitors” (Bio-Mega/Boehringer Ingelheim Research, Inc., priority 1994, dated 1997)
pIC50: −log10 of the molar value.

What follows are compounds tested against T1, HIV protease (Human immunodeficiency virus type 1 group M subtype B, UniProt P04585) (assay: Recombinant HIV Protease HPLC Assay). Details: Table IV; 37°, 30 min, pH 5.5.
T1 construct: HIV protease was expressed in E. coli; made in house; host or cells: E. coli (plasmid pBRT1 prt+)
Type: biochemical
Source text: The procedure is based on the capacity of the test compound to inhibit enzymatic cleavage by HIV protease of a decapeptide (the substrate) having an amino acid sequence which includes a known HIV protease cleavage site of a HIV polyprotein; see H. G. Krausslich et al., Proc. Natl. Acad. Sci. USA, 86, 807 (1989). Details of this assay together with the results obtained for exemplified compounds of formula 1 are described in the examples hereinafter.
Recombinant HIV Protease HPLC Assay:
Enzyme: HIV protease was expressed in E. coli {construct pBRT1 prt^+, see W. G. Farmerie et al., Science, 236, 305 (1987)}, according to the following protocol:
E. coli cells containing the pBRT1 prt^+ plasmid were used to inoculate a seed culture media composed of Luria-Bertani Broth containing 100 μg/mL of ampicillin. Flasks were incubated at 37° under agitation for 17 h. Production flasks containing sterile M9 broth, supplemented with 100 μg/mL of ampicillin, were inoculated at a level of 1% (v/v) using the seed culture described above. Total volume in each production flask was 500 mL in a 2 L Erlenmeyer flask. Flasks were incubated at 37° under agitation until a cell concentration corresponding to an optical density ([…]) of 0.6 was reached (no dilution). This time span was routinely 3-4 h. Flasks were then supplemented with 5 mM isopropylthiogalactoside (IPTG, Research Organics, Cleveland, Ohio, USA) and incubation was continued until the cell concentration reached an optical density of 0.2 at 16-fold dilution. Flasks were then supplemented with 1 mM phenylmethylsulfonyl fluoride (PMSF) and rapidly chilled to 4°. The bacterial cells were recovered by centrifugation at 4°. The wet pellet was stored at -70°.
All steps below were performed at 4° unless otherwise indicated. Thawed cells were mixed with buffer A {50 mM tris(hydroxymethyl)[…] HCl (Tris-HCl, pH 7.4); 0.6 mM ethylenediaminetetraacetic acid (EDTA); 0.375M NaCl, 0.2% Nonidet P-40® (BDH Chemicals Ltd., Poole, UK); 1 mM PMSF}, at a ratio of one part cells to nine parts buffer A. Diatomaceous earth (Celite 545®, John Manville, Lompoc, Calif. USA) was added at a ratio of two parts to one part of wet cell weight. The resulting slurry was homogenized at high speed (ca. 20,000 rpm) on a Waring® industrial blender for 8×15 sec. pulses. Cell debris/Celite® was collected by centrifugation and the resulting pellet was extracted with 4.5 parts of buffer A to one part wet solids using the homogenization procedure described above. Supernatants from both homogenization steps were combined and soluble protein was precipitated by the addition of solid (NH4)2 SO4 to yield a final concentration of 75% saturation. This mixture was agitated for 60 min and the precipitate was recovered by centrifugation. The resulting pellet was suspended in buffer B {50 mM Tris-HCl, pH 8; 30 mM NaCl; 1 mM DL-dithiothreitol (DTT); 1 mM EDTA; 1 mM PMSF; 10% glycerol}, and dialyzed for 18 h against the same buffer.
An aliquot of the dialyzed extract containing 150 mg of the protein was loaded onto a Sephadex A25® anion exchange column (Pharmacia, Uppsala, Sweden) with bed dimensions of 70 cm length and 2.5 cm diameter. The sample was eluted isocratically with buffer B at a linear flow rate of 10 cm/h. Fractions containing HIV protease activity (see below for assay description) were combined, and soluble protein was precipitated by the addition of saturated aqueous (NH4)2 SO4 to yield a total (NH4)2 SO4 concentration of 85% saturation. Precipitated protein was removed by centrifugation and the resulting pellet was dissolved in buffer C {50 mM 2-(4-morpholino)ethanesulfonic acid (MES), pH 5.5; 150 mM NaCl; 1 mM DTT; 1 mM EDTA; 10% glycerol}. This preparation was dialyzed for 18 h against buffer C, and then frozen at -70°. All crude extracts were purified by chromatography in aliquots containing 150 mg of protein in the same manner as described above. […]

Row | pIC50 | SMILES
1 | 7.28 | CC(C)(C)NC(=O)[C@@H]1C[C@H](Oc2ccccc2)CCN1C[C@@H](O)[C@H](Cc1ccccc1)NC(=O)OCc1ccccc1 [Table IV, entry 6, N-tert-butyl-1-{3(S)-(benzyloxycarbonylamino)-2(R)-hydroxy-4-phenylbutyl}-4(R)-phenoxypiperidine-2(S)-carboxamide]
2 | 6.40 | CC(C)(C)NC(=O)[C@@H]1C[C@H](c2ccccc2)CCN1C[C@@H](O)[C@H](Cc1ccccc1)NC(=O)OCc1ccccc1 [Table IV, entry 2, N-tert-butyl-1-{3(S)-(benzyloxycarbonylamino)-2(R)-hydroxy-4-phenylbutyl}-4(R)-phenylpiperidine-2(S)-carboxamide]
3 | 8.02 | CC(C)(C)NC(=O)[C@@H]1C[C@H](Sc2ccccc2)CCN1C[C@@H](O)[C@H](Cc1ccc(F)cc1)NC(=O)OCc1ccccc1 [Table IV, entry 1, N-tert-butyl-1-{3(S)-(benzyloxycarbonylamino)-2(R)-hydroxy-4-(4-fluorophenyl)butyl}-4(R)-(phenylthio)piperidine-2(S)-carboxamide]
4 | 8.49 | CC(C)[C@H](NC(=O)OCc1ccccc1)C(=O)N[C@@H](Cc1ccccc1)[C@H](O)CN1CC[C@@H](Sc2ccccn2)C[C@H]1C(=O)NC(C)(C)C [Table IV, entry 33, N-tert-butyl-1-{3(S)-{{N-(benzyloxycarbonyl)valyl}amino}-2(R)-hydroxy-4-phenylbutyl}-4(R)-(2-pyridinylthio)piperidine-2(S)-carboxamide]
5 | 6.34 | CC(C)(C)NC(=O)[C@@H]1C[C@H](Cc2ccccc2)CCN1C[C@@H](O)[C@H](Cc1ccccc1)NC(=O)OCc1ccccc1 [Table IV, entry 3, N-tert-butyl-1-{3(S)-(benzyloxycarbonylamino)-2(R)-hydroxy-4-phenylbutyl}-4(R)-benzylpiperidine-2(S)-carboxamide]
6 | 8.60 | CC(C)[C@H](NC(=O)OCc1ccccc1)C(=O)N[C@@H](Cc1ccccc1)[C@H](O)CN1CC[C@@H](Sc2ccncc2)C[C@H]1C(=O)NC(C)(C)C [Table IV, entry 34, N-tert-butyl-1-{3(S)-{{N-(benzyloxycarbonyl)valyl}amino}-2(R)-hydroxy-4-phenylbutyl}-4(R)-(4-pyridinylthio)piperidine-2(S)-carboxamide]
7 | 5.68 | CC(C)(C)NC(=O)[C@@H]1C[C@H](C2CCCCC2)CCN1C[C@@H](O)[C@H](Cc1ccccc1)NC(=O)OCc1ccccc1 [Table IV, entry 7, N-tert-butyl-1-{3(S)-(benzyloxycarbonylamino)-2(R)-hydroxy-4-phenylbutyl}-4(R)-cylohexylpiperidine-2(S)-carboxamide]

Same assay, conditions: Table VII; 37°, 30 min, pH 5.5

Row | pIC50 | SMILES
8 | 8.17 | Cc1ccc(F)cc1C(=O)N[C@@H](Cc1ccccc1)[C@H](O)CN1CC[C@@H](Sc2ccncc2)C[C@H]1C(=O)NC(C)(C)C [Table VII, entry 9, N-tert-butyl-1-{3(S)-{{(5-fluoro-2-methylphenyl)carbonyl}amino}-2(R)-hydroxy-4-phenylbutyl}-4(R)-(4-pyridinylthio)piperidine-2(S)-carboxamide]
9 | 7.47 | CC(C)(C)NC(=O)[C@@H]1C[C@H](Sc2ccncc2)CCN1C[C@@H](O)[C@H](Cc1ccccc1)NC(=O)COc1ccccc1 [Table VII, entry 3, N-tert-butyl-1-{3(S)-{{phenoxyacetyl}amino}-2(R)-hydroxy-4-phenylbutyl}-4(R)-(4-pyridinylthio)piperidine-2(S)-carboxamide]
